Measurements reported in PubChem BioAssay (NCI).
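Tested at 5 concentrations; 48 h exposure; 96-well plates; endpoints linearly interpolated, else capped at highest concentration. TGI denotes the concentration required for complete inhibition of growth.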

Tests used:
Assay in all cases: NCI-60 cell line screen, 48 h
HOP-92 NSCLC = system: HOP-92 NSCLC
UACC-62 melanoma = system: UACC-62 melanoma
HCT-116 colon = system: HCT-116 colon
HOP-62 NSCLC = system: HOP-62 NSCLC
A549 NSCLC = system: A549 NSCLC
SK-MEL-5 melanoma = system: SK-MEL-5 melanoma
SNB-78 CNS = system: SNB-78 CNS
OVCAR-4 ovarian = system: OVCAR-4 ovarian
SNB-19 CNS = system: SNB-19 CNS
OVCAR-5 ovarian = system: OVCAR-5 ovarian
SK-MEL-28 melanoma = system: SK-MEL-28 melanoma
HCC-2998 colon = system: HCC-2998 colon
SK-MEL-2 melanoma = system: SK-MEL-2 melanoma
NCI-H226 lung = system: NCI-H226 lung
DMS 273 small cell lung = system: DMS 273 small cell lung
LOX IMVI melanoma = system: LOX IMVI melanoma
XF 498 CNS = system: XF 498 CNS
SF-539 CNS = system: SF-539 CNS
COLO 205 colon = system: COLO 205 colon
K-562 leukemia = system: K-562 leukemia
SF-295 CNS = system: SF-295 CNS
NCI-H522 lung = system: NCI-H522 lung
KM20L2 colon = system: KM20L2 colon
M19-MEL melanoma = system: M19-MEL melanoma
MALME-3M melanoma = system: MALME-3M melanoma
CCRF-CEM leukemia = system: CCRF-CEM leukemia
DLD-1 colon = system: DLD-1 colon
M14 melanoma = system: M14 melanoma
HL-60(TB) leukemia = system: HL-60(TB) leukemia
DMS 114 small cell lung = system: DMS 114 small cell lung
A498 renal = system: A498 renal
RPMI-8226 leukemia = system: RPMI-8226 leukemia
CAKI-1 renal = system: CAKI-1 renal
UACC-257 melanoma = system: UACC-257 melanoma
NCI-H23 lung = system: NCI-H23 lung
LXFL 529 NSCLC = system: LXFL 529 NSCLC
MOLT-4 leukemia = system: MOLT-4 leukemia
U251 CNS = system: U251 CNS
IGROV1 ovarian = system: IGROV1 ovarian
UO-31 renal = system: UO-31 renal
NCI-H460 lung = system: NCI-H460 lung
SF-268 CNS = system: SF-268 CNS
KM12 colon = system: KM12 colon
RXF-631 renal = system: RXF-631 renal
SW-620 colon = system: SW-620 colon
SK-OV-3 ovarian = system: SK-OV-3 ovarian
SNB-75 CNS = system: SNB-75 CNS
TK-10 renal = system: TK-10 renal
SN12C renal = system: SN12C renal
OVCAR-8 ovarian = system: OVCAR-8 ovarian
786-0 renal = system: 786-0 renal
RXF 393 renal = system: RXF 393 renal
OVCAR-3 ovarian = system: OVCAR-3 ovarian
HCT-15 colon = system: HCT-15 colon
HT29 colon = system: HT29 colon
ACHN renal = system: ACHN renal
EKVX NSCLC = system: EKVX NSCLC
SR leukemia = system: SR leukemia
HOP-18 NSCLC = system: HOP-18 NSCLC

Work on O=C(CCc1nnc2s/c(=C\c3ccc([N+](=O)[O-])cc3)c(=O)n12)Nc1ccc(Cl)c(Cl)c1 yielded a TGI (HOP-92 NSCLC) greater than 100 µM, a TGI (UACC-62 melanoma) of 78.8 µM and a TGI (HCT-116 colon) greater than 100 µM. For the same molecule, the TGI (HOP-62 NSCLC) was 45.7 µM, the TGI (A549 NSCLC) was greater than 100 µM and the TGI (SK-MEL-5 melanoma) was greater than 100 µM. The TGI (SNB-78 CNS) was 52.8 µM, the TGI (OVCAR-4 ovarian) was 35.1 µM and the TGI (SNB-19 CNS) was greater than 100 µM. The TGI (OVCAR-5 ovarian) was greater than 100 µM, the TGI (SK-MEL-28 melanoma) was 63.8 µM and the TGI (HCC-2998 colon) was 53.9 µM. For the same molecule, the TGI (SK-MEL-2 melanoma) was 73.9 µM, the TGI (NCI-H226 lung) was 37 µM and the TGI (DMS 273 small cell lung) was 54.4 µM. The TGI (LOX IMVI melanoma) was 31.9 µM, the TGI (XF 498 CNS) was 45.5 µM and the TGI (SF-539 CNS) was 32.2 µM. For the same molecule, the TGI (COLO 205 colon) was 82.9 µM, the TGI (K-562 leukemia) was 63.9 µM and the TGI (SF-295 CNS) was 58.4 µM. For the same molecule, the TGI (NCI-H522 lung) was 32.3 µM, the TGI (KM20L2 colon) was greater than 100 µM and the TGI (M19-MEL melanoma) was greater than 100 µM. For the same molecule, the TGI (MALME-3M melanoma) was 98 µM, the TGI (CCRF-CEM leukemia) was 51 µM and the TGI (DLD-1 colon) was 46.5 µM. For the same molecule, the TGI (M14 melanoma) was 45 µM, the TGI (HL-60(TB) leukemia) was 44.3 µM and the TGI (DMS 114 small cell lung) was 33.4 µM. The TGI (A498 renal) was greater than 100 µM, the TGI (RPMI-8226 leukemia) was 46.5 µM and the TGI (CAKI-1 renal) was greater than 100 µM. For the same molecule, the TGI (UACC-257 melanoma) was greater than 100 µM, the TGI (NCI-H23 lung) was 75.6 µM and the TGI (LXFL 529 NSCLC) was 26.2 µM. For the same molecule, the TGI (MOLT-4 leukemia) was 51.5 µM, the TGI (U251 CNS) was 31.2 µM and the TGI (IGROV1 ovarian) was 50 µM. The TGI (UO-31 renal) was greater than 100 µM, the TGI (NCI-H460 lung) was greater than 100 µM and the TGI (SF-268 CNS) was 35.7 µM. The TGI (KM12 colon) was 31.2 µM, the TGI (RXF-631 renal) was greater than 100 µM and the TGI (SW-620 colon) was 58.4 µM. For the same molecule, the TGI (SK-OV-3 ovarian) was greater than 100 µM, the TGI (SNB-75 CNS) was 28 µM and the TGI (TK-10 renal) was greater than 100 µM. For the same molecule, the TGI (SN12C renal) was 63.9 µM, the TGI (OVCAR-8 ovarian) was 38.9 µM and the TGI (786-0 renal) was 35.7 µM. For the same molecule, the TGI (RXF 393 renal) was 34.6 µM, the TGI (OVCAR-3 ovarian) was 27 µM and the TGI (HCT-15 colon) was greater than 100 µM. For the same molecule, the TGI (HT29 colon) was 71.7 µM and the TGI (ACHN renal) was greater than 100 µM.
Cc1c(C(Cc2ccccc2N(C)C(=O)/C=C\C(=O)O)c2c[nH]c3ccccc23)c2ccccc2n1C (centres undefined) gave a TGI (UACC-62 melanoma) of 34.1 µM, a TGI (HCT-116 colon) of 28.4 µM and a TGI (HOP-62 NSCLC) of 32.5 µM. It also gave a TGI (A549 NSCLC) of 31.8 µM, a TGI (SK-MEL-5 melanoma) of 29.8 µM and a TGI (SNB-78 CNS) of 53.8 µM. It also gave a TGI (OVCAR-4 ovarian) of 55.5 µM, a TGI (SNB-19 CNS) of 39.4 µM and a TGI (OVCAR-5 ovarian) of 35.6 µM. For the same molecule, the TGI (HCC-2998 colon) was 30.9 µM, the TGI (NCI-H226 lung) was 43 µM and the TGI (DMS 273 small cell lung) was 32.7 µM. For the same molecule, the TGI (LOX IMVI melanoma) was 29.2 µM, the TGI (XF 498 CNS) was 36.9 µM and the TGI (SF-539 CNS) was 31.8 µM. It also gave a TGI (COLO 205 colon) of 29.6 µM, a TGI (K-562 leukemia) of 54.7 µM and a TGI (SF-295 CNS) of 28.8 µM. The TGI (NCI-H522 lung) was 28.6 µM, the TGI (KM20L2 colon) was 32.7 µM and the TGI (M19-MEL melanoma) was 30.5 µM. For the same molecule, the TGI (MALME-3M melanoma) was 22.4 µM, the TGI (CCRF-CEM leukemia) was 37.1 µM and the TGI (DLD-1 colon) was 35.2 µM. The TGI (M14 melanoma) was 39.5 µM, the TGI (HL-60(TB) leukemia) was 23.9 µM and the TGI (DMS 114 small cell lung) was 27.5 µM. The TGI (A498 renal) was 35.6 µM, the TGI (CAKI-1 renal) was 36 µM and the TGI (UACC-257 melanoma) was 31.5 µM. It also gave a TGI (NCI-H23 lung) of 32.8 µM, a TGI (LXFL 529 NSCLC) of 26 µM and a TGI (MOLT-4 leukemia) of 53.8 µM. For the same molecule, the TGI (U251 CNS) was 30.3 µM, the TGI (IGROV1 ovarian) was 39.8 µM and the TGI (EKVX NSCLC) was 33.1 µM. The TGI (UO-31 renal) was 27.7 µM, the TGI (NCI-H460 lung) was 32.7 µM and the TGI (SR leukemia) was 46.7 µM. It also gave a TGI (SF-268 CNS) of 35.9 µM, a TGI (KM12 colon) of 29.1 µM and a TGI (RXF-631 renal) of 27.9 µM. The TGI (SW-620 colon) was 34.5 µM, the TGI (SK-OV-3 ovarian) was 40.2 µM and the TGI (SNB-75 CNS) was 33.7 µM. It also gave a TGI (TK-10 renal) of 33.8 µM, a TGI (SN12C renal) of 30 µM and a TGI (OVCAR-8 ovarian) of 29.4 µM. For the same molecule, the TGI (786-0 renal) was 35.9 µM, the TGI (RXF 393 renal) was 27.3 µM and the TGI (OVCAR-3 ovarian) was 27.7 µM. It also gave a TGI (HCT-15 colon) of 29.3 µM, a TGI (HT29 colon) of 30.8 µM and a TGI (ACHN renal) of 34.3 µM.
In the case of C=C(Br)C(C)(Cl)CCC(Br)C(C)(C)Br (centres undefined), the TGI (HOP-92 NSCLC) is reported as greater than 100 µM, the TGI (UACC-62 melanoma) is reported as greater than 100 µM and the TGI (HCT-116 colon) is reported as greater than 100 µM. The TGI (HOP-62 NSCLC) was greater than 100 µM, the TGI (A549 NSCLC) was greater than 100 µM and the TGI (SK-MEL-5 melanoma) was greater than 100 µM. It also gave a TGI (SNB-78 CNS) greater than 100 µM, a TGI (OVCAR-4 ovarian) greater than 100 µM and a TGI (OVCAR-5 ovarian) greater than 100 µM. For the same molecule, the TGI (SK-MEL-2 melanoma) was 80.4 µM, the TGI (NCI-H226 lung) was greater than 100 µM and the TGI (DMS 273 small cell lung) was greater than 100 µM. For the same molecule, the TGI (LOX IMVI melanoma) was 50.5 µM, the TGI (SF-539 CNS) was greater than 100 µM and the TGI (COLO 205 colon) was greater than 100 µM. The TGI (K-562 leukemia) was 80.9 µM, the TGI (SF-295 CNS) was greater than 100 µM and the TGI (NCI-H522 lung) was greater than 100 µM. The TGI (M19-MEL melanoma) was greater than 100 µM, the TGI (MALME-3M melanoma) was greater than 100 µM and the TGI (CCRF-CEM leukemia) was 59.6 µM. The TGI (DLD-1 colon) was greater than 100 µM, the TGI (M14 melanoma) was greater than 100 µM and the TGI (HOP-18 NSCLC) was greater than 100 µM. For the same molecule, the TGI (HL-60(TB) leukemia) was 54.5 µM, the TGI (DMS 114 small cell lung) was 76 µM and the TGI (RPMI-8226 leukemia) was 67 µM. It also gave a TGI (CAKI-1 renal) greater than 100 µM, a TGI (UACC-257 melanoma) greater than 100 µM and a TGI (NCI-H23 lung) greater than 100 µM. For the same molecule, the TGI (LXFL 529 NSCLC) was greater than 100 µM, the TGI (MOLT-4 leukemia) was 83.1 µM and the TGI (U251 CNS) was greater than 100 µM. For the same molecule, the TGI (IGROV1 ovarian) was greater than 100 µM, the TGI (UO-31 renal) was greater than 100 µM and the TGI (NCI-H460 lung) was greater than 100 µM. The TGI (SR leukemia) was 51.9 µM, the TGI (KM12 colon) was greater than 100 µM and the TGI (SW-620 colon) was greater than 100 µM. The TGI (SK-OV-3 ovarian) was greater than 100 µM, the TGI (SNB-75 CNS) was greater than 100 µM and the TGI (TK-10 renal) was greater than 100 µM. It also gave a TGI (SN12C renal) greater than 100 µM, a TGI (OVCAR-8 ovarian) greater than 100 µM and a TGI (786-0 renal) greater than 100 µM. The TGI (RXF 393 renal) was greater than 100 µM, the TGI (HCT-15 colon) was greater than 100 µM and the TGI (HT29 colon) was greater than 100 µM. It also gave a TGI (ACHN renal) greater than 100 µM.
